Biological target: T1, ALDH3A1 (Homo sapiens, UniProt P30838)
T1 sequence (P30838 1-453): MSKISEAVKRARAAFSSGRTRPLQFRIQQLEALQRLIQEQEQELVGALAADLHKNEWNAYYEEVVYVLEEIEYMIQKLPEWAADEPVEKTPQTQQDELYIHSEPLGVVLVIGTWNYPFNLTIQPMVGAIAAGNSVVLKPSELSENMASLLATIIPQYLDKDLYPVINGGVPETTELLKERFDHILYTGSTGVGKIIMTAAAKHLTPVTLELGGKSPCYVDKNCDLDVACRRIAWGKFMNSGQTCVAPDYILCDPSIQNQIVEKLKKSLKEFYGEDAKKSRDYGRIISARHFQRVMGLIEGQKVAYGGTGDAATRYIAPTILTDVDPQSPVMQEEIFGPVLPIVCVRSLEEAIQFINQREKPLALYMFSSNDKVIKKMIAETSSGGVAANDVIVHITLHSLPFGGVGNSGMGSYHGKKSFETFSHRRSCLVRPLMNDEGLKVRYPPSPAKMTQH
Test: ALDH enzymatic assay (spectrophotometric), recombinant ALDH3A1
Type: biochemical
Conditions: 10 mM acetaldehyde, propionaldehyde, benzaldehyde, cinnamaldehyde, decanal, heptaldehyde or 200 μM 4-hydroxynonenal; 100 μM compound
From the text: To determine if ALDH3A1 activation is sufficient to protect salivary glands from radiation-induced dysfunction, a library of 135 traditional Chinese medicine extracts donated from Sun Ten Pharmaceutical Co., Taiwan, was screened using a spectroscopic enzyme activity assay and purified recombinant ALDH3A1. […] We then conducted high performance liquid chromatography (HPLC) fractionation of the extracts and nuclear magnetic resonance (NMR) characterization of the fractions. Based on the NMR fingerprint, we identified known constituents of similar fingerprints and purchased the commercially available compounds to test using the enzyme activity assay.
ALDH enzymatic assay: ALDH1A1, ALDH1A2, 2, 3A1, 3A2, 4A1, 5A1, 7A1 were measured as previously described using 5 μg/ml of recombinant protein (Chen, C. H., Cruz, L. A., and Mochly-Rosen, D. (2015) Pharmacological recruitment of aldehyde dehydrogenase 3A1 (ALDH3A1) to assist ALDH2 in acetaldehyde and ethanol metabolism in vivo. Proceedings of the National Academy of Sciences of the United States of America 112, 3074-3079). […] Assays were conducted in 50 mM NaPPi buffer (pH 7.4) in the presence of 2.5 mM NAD^+ and 10 mM substrate and measured in triplicate at 25° C. Dose response curve fits and EC50's were calculated using GraphPad Prism 7 software.
Activity measured in presence of compound concentrations from 6 nM to 400 μM.

Question: With `C=CCc1ccc2c(c1)OCO2` [Alda-89, safrole, reference compound] as the compound, how does the “substrate specificity of increase in ALDH3A1 catalytic activity” value read?
Answer: only increase the catalytic activity of ALDH3A1 towards small aldehydes like acetaldehyde and propionaldehyde but not aromatic or long-chain aldehydes
